Here are results for five cell lines from the supplement of paper PMC10307832.

Experiment in all cases: relative viability (nuclei count vs DMSO), 5 days (fraction); higher = more cells survive
Compound in the assay “XMD8-85 + Foretinib”: CN1CCN(CC1)C2=CC(=C(C=C2)NC3=NC=C4C(=N3)N(C5=CC=CC=C5C(=O)N4C)C)OC [XMD8-85] + COc1cc2c(Oc3ccc(NC(=O)C4(C(=O)Nc5ccc(F)cc5)CC4)cc3F)ccnc2cc1OCCCN1CCOCC1 [Foretinib] (partner 0.25 µM)
The gist of the method:
(§1)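 Relative viability equals treated-well nuclei counts divided by vehicle-well nuclei counts. Counts came from 4× images of lung cancer cell lines grown in 1536-well plates for 5 days after pin-tool dosing on the day after seeding. Dosing used one drug alone or a fixed anchor-drug dose plus five library-drug doses (not always all listed) in √10 steps, and values are medians of duplicate plates.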

Compound in the assay “4EGI-1 + OSI-027”: O=C(O)C(Cc1ccccc1[N+](=O)[O-])=NNc1nc(-c2ccc(Cl)c(Cl)c2)cs1 (mixture of isomers) [4EGI-1] + COc1cccc2cc(-c3nc([C@H]4CC[C@H](C(=O)O)CC4)n4ncnc(N)c34)[nH]c12 [OSI-027] (partner 0.5 µM)
An outline of the steps: as §1

Compound in the assay “4EGI-1 + AZD7762”: O=C(O)C(Cc1ccccc1[N+](=O)[O-])=NNc1nc(-c2ccc(Cl)c(Cl)c2)cs1 (mixture of isomers) [4EGI-1] + NC(=O)Nc1cc(-c2cccc(F)c2)sc1C(=O)N[C@H]1CCCNC1 [AZD7762] (partner 0.2 µM)
An outline of the steps: as §1

Compound in the assay “XMD8-85 + Lapatinib”: CN1CCN(CC1)C2=CC(=C(C=C2)NC3=NC=C4C(=N3)N(C5=CC=CC=C5C(=O)N4C)C)OC [XMD8-85] + CS(=O)(=O)CCNCc1ccc(-c2ccc3ncnc(Nc4ccc(OCc5cccc(F)c5)c(Cl)c4)c3c2)o1 [Lapatinib] (partner 2 µM)
The gist of the method:
as §1

With ChaGo-K-1, the relative viability with XMD8-85 + Foretinib (first compound 0.08 µM) is 0.823; in the assay with XMD8-85 + Foretinib (first compound 0.253 µM), 1.01; with XMD8-85 + Foretinib (first compound 0.8 µM) it was 0.93; with XMD8-85 + Foretinib (first compound 2.53 µM), 0.867; with XMD8-85 + Foretinib (first compound 8 µM), 0.774; with 4EGI-1 + OSI-027 (first compound 0.5 µM) it was 0.595. Besides, the relative viability with 4EGI-1 + OSI-027 (first compound 1.581 µM) is 0.526; with 4EGI-1 + OSI-027 (first compound 5 µM) it was 0.558; with 4EGI-1 + OSI-027 (first compound 15.81 µM) it was 0.483; with 4EGI-1 + OSI-027 (first compound 50 µM), 0.381; with 4EGI-1 + AZD7762 (first compound 0.5 µM) it was 0.875; with 4EGI-1 + AZD7762 (first compound 1.581 µM), 0.87. Besides, the relative viability in the assay with 4EGI-1 + AZD7762 (first compound 5 µM) was 0.876; in the assay with 4EGI-1 + AZD7762 (first compound 15.81 µM) it was 0.897; in the assay with 4EGI-1 + AZD7762 (first compound 50 µM), 0.465.

Consider SW 900, for which the relative viability with XMD8-85 + Foretinib (first compound 0.08 µM) is 0.942; in the assay with XMD8-85 + Foretinib (first compound 0.253 µM), 0.922; in the assay with XMD8-85 + Foretinib (first compound 0.8 µM), 1.58; with XMD8-85 + Foretinib (first compound 2.53 µM), 0.466; with XMD8-85 + Foretinib (first compound 8 µM), 0.403; with 4EGI-1 + OSI-027 (first compound 0.5 µM), 0.72. The relative viability was 0.586 with 4EGI-1 + OSI-027 (first compound 5 µM); 0.46 in the assay with 4EGI-1 + OSI-027 (first compound 15.81 µM); 0.207 in the assay with 4EGI-1 + OSI-027 (first compound 50 µM); 0.833 with 4EGI-1 + AZD7762 (first compound 0.5 µM); 0.583 with 4EGI-1 + AZD7762 (first compound 1.581 µM); 0.574 with 4EGI-1 + AZD7762 (first compound 5 µM). In addition, the relative viability worked out at 0.377 in the assay with 4EGI-1 + AZD7762 (first compound 15.81 µM) and 0.173 with 4EGI-1 + AZD7762 (first compound 50 µM).

Turning to NCI-H727, the relative viability with XMD8-85 + Foretinib (first compound 0.08 µM) is 0.895; in the assay with XMD8-85 + Foretinib (first compound 0.253 µM), 1.05; in the assay with XMD8-85 + Foretinib (first compound 0.8 µM), 0.823; with XMD8-85 + Foretinib (first compound 2.53 µM) it was 0.553; with XMD8-85 + Foretinib (first compound 8 µM), 0.693; with XMD8-85 + Lapatinib (first compound 0.08 µM), 0.627. The relative viability in the assay with XMD8-85 + Lapatinib (first compound 0.253 µM) was 0.792; with XMD8-85 + Lapatinib (first compound 2.53 µM), 0.731; in the assay with XMD8-85 + Lapatinib (first compound 8 µM), 0.543; with 4EGI-1 + OSI-027 (first compound 0.5 µM), 0.669; with 4EGI-1 + OSI-027 (first compound 1.581 µM), 0.652; with 4EGI-1 + OSI-027 (first compound 5 µM), 0.538. Besides, the relative viability was determined as 0.552 in the assay with 4EGI-1 + OSI-027 (first compound 15.81 µM); 0.451 with 4EGI-1 + OSI-027 (first compound 50 µM); 0.631 with 4EGI-1 + AZD7762 (first compound 0.5 µM); 0.631 with 4EGI-1 + AZD7762 (first compound 1.581 µM); 0.511 with 4EGI-1 + AZD7762 (first compound 5 µM); 0.519 in the assay with 4EGI-1 + AZD7762 (first compound 15.81 µM). The relative viability with 4EGI-1 + AZD7762 (first compound 50 µM) amounted to 0.478.

Consider NCI-H441, for which the relative viability with XMD8-85 + Foretinib (first compound 0.08 µM) is 1.11; with XMD8-85 + Foretinib (first compound 0.253 µM), 0.971; with XMD8-85 + Foretinib (first compound 0.8 µM) it was 1.15; with XMD8-85 + Foretinib (first compound 2.53 µM), 1.13; in the assay with XMD8-85 + Foretinib (first compound 8 µM), 0.644; with 4EGI-1 + OSI-027 (first compound 0.5 µM), 0.812. Further, the relative viability with 4EGI-1 + OSI-027 (first compound 1.581 µM) was 0.488; with 4EGI-1 + OSI-027 (first compound 5 µM), 0.653; in the assay with 4EGI-1 + OSI-027 (first compound 15.81 µM), 0.478; with 4EGI-1 + OSI-027 (first compound 50 µM), 0.333; with 4EGI-1 + AZD7762 (first compound 0.5 µM), 1.38; with 4EGI-1 + AZD7762 (first compound 1.581 µM), 1.13. Further, the relative viability in the assay with 4EGI-1 + AZD7762 (first compound 5 µM) was 1.28; in the assay with 4EGI-1 + AZD7762 (first compound 15.81 µM) it was 1.08; with 4EGI-1 + AZD7762 (first compound 50 µM), 0.772.

In the case of HCC-44, the relative viability with XMD8-85 + Lapatinib (first compound 0.08 µM) came out at 0.942; with XMD8-85 + Lapatinib (first compound 0.253 µM), 0.884; in the assay with XMD8-85 + Lapatinib (first compound 0.8 µM) it was 1.1; with XMD8-85 + Lapatinib (first compound 2.53 µM) it was 1.06; with XMD8-85 + Lapatinib (first compound 8 µM), 0.959; in the assay with 4EGI-1 + OSI-027 (first compound 0.5 µM) it was 0.483. Moreover, the relative viability in the assay with 4EGI-1 + OSI-027 (first compound 5 µM) amounted to 0.41; with 4EGI-1 + OSI-027 (first compound 15.81 µM), 0.404; in the assay with 4EGI-1 + OSI-027 (first compound 50 µM), 0.175; with 4EGI-1 + AZD7762 (first compound 0.5 µM), 1.02; with 4EGI-1 + AZD7762 (first compound 1.581 µM), 0.984; with 4EGI-1 + AZD7762 (first compound 5 µM) it was 0.976. In addition, the relative viability in the assay with 4EGI-1 + AZD7762 (first compound 15.81 µM) was found to be 0.922; with 4EGI-1 + AZD7762 (first compound 50 µM), 0.799.
